This note sets out measurements from patent US20240368174A1, “Antiviral Heterocyclic Compounds” (Enanta Pharmaceuticals, Inc., priority 2023, published 2024).

Molecules are shown by their SMILES. pEC50: −log10 of the molar value.

This test relates to HMPV clinical isolate A2 strain TN 94-49. The test is described as follows: HMPV antiviral assay, Method 1 (LLC-MK2 cells, ATP-Lite). Particulars: human metapneumovirus, hMPV A2 TN/94-49, LLC-MK2 cells. Type of test: cell-based. The protocol: In vitro HMPV antiviral activity was evaluated using the clinical isolate A2 strain TN 94-49 (obtained from Dr. John Williams, Vanderbilt University, Tennessee) and LLC-MK2 cells (ATCC #CCL-7), an immortalized kidney epithelial cell line from Macaca mulatta. Compounds were resuspended in dimethyl sulfoxide (DMSO) at 10 mM, serially diluted and added to a 384-well source plate. Subsequently, the compounds were diluted and transferred onto 384-well assay plates using the Echo-650 automated liquid handling system (Beckman Coulter, Indiana). The test compounds were assessed in duplicate at a top concentration of 2 μM followed by 2.5-fold serial dilutions to give a total of 10 concentration points. DMSO control wells were also included on the assay plates and were either infected or not, acting as positive and negative controls. A2 TN 94-49 virus infections were performed in-suspension with LLC-MK2 cells. The cells were washed twice with PBS and removed from the cell-culture flask with 0.25% trypsin-EDTA (Thermo Fisher Scientific, MA). The trypsin-EDTA was inactivated by resuspending in 2% fetal bovine serum (FBS) and OptiMEM (ThermoFisher Scientific, MA) containing 1% penicillin-streptomycin. Cells were pelleted by centrifuging for 5 minutes at 800 rpm, the supernatant was removed, and cells were re-suspended and washed in PBS plus 100 μg/mL CaCl2). This step was performed twice. Cells were then re-suspended in serum-free (SF)-OptiMEM containing 4 μg/mL TPCK-Trypsin (Sigma Aldrich, MO), 1% penicillin-streptomycin (ThermoFisher Scientific, MA) and 100 μg/mL CaCl2). Cells were counted and seeded at a density of 5,000 cells/well, 12.5 μL/well. Virus infections were done at a multiplicity of infection (MOI) of 0.005 with 12.5 μL added per well. Virus infections were performed in infection media which contained SF-OptiMEM, 100 μg/mL CaCl2) and 1% penicillin-streptomycin. HMPV viral stocks are suspended in infection media+5% glycerol, thus an equal volume of infection media+5% glycerol was added to uninfected wells to equalize the final % glycerol across all wells of the assay plate. The final concentration of TPCK-trypsin was 2 μg/mL. The assay plates were incubated at 37° C., 5% CO2 for 7 days. After 7 days incubation, 12.5 μL of ATP-Lite (PerkinElmer, MA) was added to each well and the raw luminescence values were determined using the Envision 2104 (Perkin Elmer, MA). The average of the raw luminescence values for the cells and virus only positive control wells was subtracted from all conditions tested and the percent cell health was determined by dividing these values by the average of the cells only negative control wells. EC50 values were then calculated by non-linear regression using a four-parameter curve logistic equation. The curve fit model employed was XLFit Dose Response One Site Model 200: y=(A+(B/(1+((x/C)^D)))), where A is the minimum y value, B is the maximum y value, C is the log EC50 value, and D is the slope factor.
As for `[2H]C([2H])([2H])c1nc2c(OC)cc(C(=O)NC[C@@](O)(c3cccc(F)c3)c3cc4c(c(-c5ccc(F)c(Cl)c5Cl)n3)OC[C@]4(C)C(N)=O)cc2s1` [Example 272], the pEC50 is over 6.30.
Then `COc1cc(C(=O)NC[C@@](O)(c2ccccc2)c2cc3c(c(-c4ccc5c(c4Cl)OC(F)(F)O5)n2)OC[C@]3(C)C(N)=O)cc2cn(C(F)F)nc12` [Example 253], with over 6.30; and `CNC(=O)[C@@]1(C)COc2c1cc([C@@](O)(CNC(=O)c1cc(OC)c3nn(C4CC4)cc3c1)c1ccccc1)nc2-c1cc(Cl)c(F)cc1F` [Example 141], with over 6.30.
Then `COc1cc(C(=O)NC[C@](O)(c2cc3c(c(-c4cc(Cl)cc(Cl)c4Cl)n2)OC[C@]3(C)C(N)=O)C2CC2)cc2cn(C3CC3)nc12` [Example 61], with over 6.30; and `COc1cc(C(=O)NC[C@](O)(c2cc3c(c(-c4cc(C)cc(F)c4F)n2)OC[C@]3(C)C(N)=O)C2CC2)cc2cn(C3CC3)nc12` [Example 49], with under 6.30; and `C[C@]1(C(N)=O)COc2c1cc([C@@](O)(CNC(=O)c1cc(Cl)c3nn(C4CC4)cc3c1)C1CC1)nc2-c1ccc2c(c1Cl)OC(F)(F)O2` [Example 35], with over 6.30.
Then `COc1cc(C(=O)NC[C@](O)(c2cc3c(c(-c4cc(C(F)(F)F)ccc4C)n2)OC[C@]3(C)C(N)=O)C2CC2)cc2cn(C3CC3)nc12` [Example 53], with over 6.30.
In turn, `[2H]C([2H])([2H])c1nc2c(OC)cc(C(=O)NC[C@](O)(c3cc4c(c(-c5cc(Cl)c(F)cc5F)n3)OC[C@]4(C)C(N)=O)C3CC3)cc2s1` [Example 10] showed a pEC50 of over 6.30.
Then `C[C@]1(C(N)=O)COc2c1cc([C@@](O)(CNC(=O)c1ccc3nc(C(F)(F)F)oc3c1)c1ccccc1)nc2-c1cc(Cl)c(F)cc1F` [Example 82], with under 6.30.
Then `COc1cc(C(=O)NC[C@@](O)(c2ccccc2)c2cc3c(c(-c4cc(Cl)c(F)cc4F)n2)OC[C@]3(C)C(N)=O)cc2oc(C)nc12` [Example 84], with over 6.30; and `COc1cc(C(=O)NC[C@](O)(c2cc3c(c(-c4ccc(F)cc4O)n2)OC[C@]3(C)C(N)=O)C2CC2)cc2cn(C3CC3)nc12` [Example 63], with under 6.30; and `COc1cc(C(=O)NC[C@@](O)(c2ccccc2)c2cc3c(c(-c4cc(Cl)c(F)cc4F)n2)OC[C@]3(C)C(N)=O)cc2ccc(C)nc12` [Example 79], with over 6.30.
Then `COc1cc(C(=O)NC[C@](O)(c2cc3c(c(-c4cc(F)c(F)cc4F)n2)OC[C@]3(C)C(N)=O)C2(O)CC2)cc2cn(C3CC3)nc12` [Example 215], with under 6.30.
`COc1cccc([C@](O)(CNC(=O)c2cc(OC)c3nc(C)c(Cl)cc3c2)c2cc3c(c(-c4cc(Cl)c(F)cc4F)n2)OC[C@]3(C)C(N)=O)c1` [Example 164] showed a pEC50 of over 6.30.
Then `COc1cc(C(=O)NC[C@](O)(c2cc3c(c(-c4cc(Cl)cc(C)c4F)n2)OC[C@]3(C)C(N)=O)C2CC2)cc2cn(C3CC3)nc12` [Example 47], with under 6.30; and `COc1cc(C(=O)NC[C@@](O)(c2cc3c(c(-c4cc(F)c(F)c(F)c4Cl)n2)OC[C@]3(C)C(N)=O)C(F)(F)F)cc2cn(C3CC3)nc12` [Example 58], with under 6.30.
Then `COc1cc(C(=O)NC[C@](O)(c2cc3c(c(-c4cc(Cl)c(Cl)cc4Cl)n2)OC[C@]3(C)C(N)=O)C2CC2)cc2cn(C3CC3)nc12` [Example 62], with under 6.30; and `[2H]c1nc2c(OC)cc(C(=O)NC[C@](O)(c3cc4c(c(-c5cc(F)c(F)cc5F)n3)OC[C@]4(C)C(N)=O)C3CC3)cc2cc1Br` [Example 30], with over 6.30.
In turn, `COc1cc(C(=O)NC[C@](O)(c2cc3c(c(-c4ccc5ccsc5c4)n2)OC[C@]3(C)C(N)=O)C2CC2)cc2cn(C3CC3)nc12` [Example 48] showed a pEC50 of under 6.30.
As for `[2H]C([2H])([2H])c1nc2c(OC)cc(C(=O)NC[C@](O)(c3cc4c(c(-c5ccc(F)c(Cl)c5Cl)n3)OC[C@]4(C)C(N)=O)C3CC3)cc2cc1Br` [Example 24], the pEC50 was over 6.30.
Then `COc1ccc([C@](O)(CNC(=O)c2cc(OC)c3nn(C(F)F)cc3c2)c2cc3c(c(-c4cc(Cl)c(F)cc4F)n2)OC[C@]3(C)C(N)=O)cc1` [Example 167], with over 6.30; and `[2H]C([2H])([2H])c1nc2c(OC)cc(C(=O)NC[C@@](O)(c3ccsc3)c3cc4c(c(-c5cc(Cl)c(F)cc5F)n3)OC[C@]4(C)C(N)=O)cc2s1` [Example 176], with over 6.30.
Then `COc1cc(C(=O)NC[C@](O)(c2cc3c(c(-c4cc(Cl)c(F)cc4F)n2)OC[C@]3(C)C(N)=O)c2cc(C)cs2)cc2cn(C3CC3)nc12` [Example 467], with over 6.30; and `COc1cc(C(=O)NC[C@@](O)(c2cccc(F)c2)c2cc3c(c(-c4ccc5c(c4Cl)OC(F)(F)O5)n2)OC[C@]3(C)C(N)=O)cc2cn(C3CC3)nc12` [Example 274], with over 6.30; and `COc1cc(C(=O)NC[C@@](O)(c2ccccc2)c2cc3c(c(-c4cc(C(F)(F)F)ccc4F)n2)OC[C@]3(C)C(N)=O)cc2cn(C(F)F)nc12` [Example 148], with over 6.30.
Then `COc1cc(F)ccc1-c1nc([C@@](O)(CNC(=O)c2cc(OC)c3nn(C4CC4)cc3c2)C2CC2)cc2c1OC[C@]2(C)C(N)=O` [Example 67], with under 6.30; and `COc1cc(C(=O)NC[C@@](O)(c2ccccc2)c2cc3c(c(-c4cccc(Cl)c4Cl)n2)OC[C@]3(C)C(N)=O)cc2cn(C(F)F)nc12` [Example 261], with over 6.30.
`COc1cc(C(=O)NC[C@@](O)(c2ccsc2)c2cc3c(c(-c4cc(F)c(F)cc4F)n2)OC[C@]3(C)C(N)=O)cc2cn(C3CC3)nc12` [Example 177] had a pEC50 of over 6.30.
With `COc1cc(C(=O)NC[C@](O)(c2cc3c(c(-c4cccc(SC(F)(F)F)c4)n2)OC[C@]3(C)C(N)=O)C2CC2)cc2cn(C3CC3)nc12` [Example 36], the pEC50 is under 6.30.
Then `COc1cc(C(=O)NC[C@](O)(c2cc3c(c(-c4cc(F)c(F)cc4F)n2)OC[C@]3(C)C(N)=O)C2CC(F)(F)C2)cc2cn(C3CC3)nc12` [Example 31], with over 6.30; and `COc1cc(C(=O)NC[C@@](O)(c2ccccc2)c2cc3c(c(-c4cc(Cl)c(F)cc4F)n2)OC[C@]3(C)C(N)=O)cc2cc(C)cnc12` [Example 80], with over 6.30.
Then `COc1cc(C(=O)NC[C@@](O)(c2cccc(F)c2)c2cc3c(c(-c4ccc(F)c(Cl)c4Cl)n2)OC[C@]3(C)C(N)=O)cc2oc(C)nc12` [Example 279], with over 6.30.
Then `COc1cc(C(=O)NC[C@@](O)(c2ccccc2)c2cc3c(c(-c4ccc5c(c4Cl)OC(F)(F)O5)n2)OC[C@]3(C)C(N)=O)cc2cn(C3(F)CC3)nc12` [Example 255], with over 6.30.
With `[2H]C([2H])([2H])c1nc2c(OC)cc(C(=O)NC[C@@](O)(c3ccc(F)cc3)c3cc4c(c(-c5cc(Cl)c(F)cc5F)n3)OC[C@]4(C)C(N)=O)cc2s1` [Example 16], the pEC50 is over 6.30.
Then `COc1cc(C(=O)NC[C@@](O)(c2ccccc2)c2cc3c(c(-c4cc(C(F)F)c(F)cc4F)n2)OC[C@]3(C)C(N)=O)cc2cn(C3CC3)nc12` [Example 288], with over 6.30.
Then `COc1cc(C(=O)NC[C@](O)(c2cc3c(c(-c4cc(Cl)c(F)cc4F)n2)OC[C@]3(C)C(N)=O)c2ccccc2F)cc2cn(C3CC3)nc12` [Example 136], with over 6.30.

By pEC50 is commonly meant the EC50 on a negative log10 scale, so that one unit is a factor of ten. Lower therefore signals a large EC50.
